Experiment [1] addresses T1, mouse HPCA (Hippocalcin) (Mus musculus, UniProt P84075).
T1 construct: full-length cDNA in pET45b(+), N-terminal 6x-His tag kept, E. coli BL21 (DE3), HisTrap purified; major ~20 kDa and minor ~25 kDa bands
Briefly: UV photocrosslinking, click rhodamine-azide, in-gel fluorescence. The format is binding. The settings on record: probe 10 uM or 0-250 uM, HPCA 10 uM, 50 mM Tris pH 8.0, 37 C, 6 min UV 365 nm, covalent photo-crosslink.

Experiment [2] deals with T2, HPCA (N-terminal FLAG tag) in HEK293T lysates (Mus musculus, UniProt P84075).
T2 construct: N-terminal FLAG tag, transiently overexpressed in HEK293T
Briefly: UV photocrosslinking in lysate, click, in-gel fluorescence. The format is biochemical. To be noted: probe 50 uM, 2 mg/mL HEK293T lysate; covalent photo-crosslink; mock control.

In experiment [3] the target is T1, mouse HPCA (Hippocalcin). Briefly: effect on PG-DA photo-labelling, in-gel fluorescence. The settings on record: HPCA 10 uM, PG-DA 10 uM, 1-PG 0-250 uM, 37 C, 30 min; raises, not competes, probe binding (suggested cooperative).

Molecules are shown by their SMILES.

For `C#CCCCC1(CCCCCCCCCC(=O)OCC(O)CO)N=N1` (stereo not shown) [PG-DA], the “UV photocrosslinking, click rhodamine-azide, in-gel fluorescence” value in experiment [1] (Ca2+ surplus versus EDTA compared) is reported as “PG-DA bound significantly more to mouse HPCA than the PA-DA probe”. In experiment [2], the “UV photocrosslinking in lysate, click, in-gel fluorescence” value is “PG-DA probe, but not PA-DA probe, was able to bind to HPCA in HEK293T lysates”.

On to `CCCCCCCCCCCCCCCC(=O)OCC(O)CO` (stereo not shown) [1-PG], for which the “effect on PG-DA photo-labelling, in-gel fluorescence” value in experiment [3] is “increasing the 1-PG concentration resulted in the heightened binding of the PG-DA probe”.

In the case of `C#CCCCC1(CCCCCCCCCC(=O)O)N=N1` [PA-DA], the “UV photocrosslinking, click rhodamine-azide, in-gel fluorescence” value in experiment [1] (weaker control probe) is on record as “PG-DA probe binds far more to HPCA than the PA-DA probe”.

The values are drawn from article PMC12227648, “Chemoproteomics identifies protein ligands for monoacylglycerol lipids” (Communications Chemistry, 2025).
